Assays:
[1] = mouse liver microsomal stability (Microsome Assay Protocol); type: in vitro ADME; details: pH 7.4; mouse liver microsomes, NADPH, 37° C.; read-out: MLM t1/2, min
Method: (§1) ND refers to not disclosed.
• 1. Buffer A: 1.0 L of 0.1 M monobasic Potassium Phosphate buffer containing 1.0 mM EDTA Buffer B: 1.0 L of 0.1 M Dibasic Potassium Phosphate buffer containing 1.0 mM EDTA • Buffer C: 0.1 M Potassium Phosphate buffer, 1.0 mM EDTA, pH 7.4 by titrating 700 mL of buffer B with buffer A while monitoring with a pH meter. • 2. Reference compound (Ketanserin) and test compounds spiking solution: • 500 μM spiking solution: added 10 μL of 10 mM DMSO stock solution into 190 μL ACN. • 1.5 μM spiking solution in microsomes (0.75 mg/mL): added 1.5 μL of 500 μM spiking solution and 18.75 μL of 20 mg/mL liver microsomes into 479.75 μL of Buffer C on ice. • 3. Prepared NADPH stock solution (6 mM) by dissolving NADPH into buffer C. Dispensed 30 μL of 1.5 μM spiking solution containing 0.75 mg/mL microsomes solution to the assay plates designated for different time points (0-, 5-, 15-, 30-, 45-min) on ice. For 0-min, added 135 μL of ACN containing IS to the wells of 0-min plate and then added 15 μL of NADPH stock solution (6 mM). Pre-incubated all other plates at 37° C. for 5 minutes. Added 15 μL of NADPH stock solution (6 mM) to the plates to start the reaction and timing. At 5-min, 15-min, 30-min, and 45-min, added 135 μL of ACN containing IS to the wells of corresponding plates, respectively, to stop the reaction. After quenching, shook the plates at the vibrator (IKA, MTS 2/4) for 10 min (600 rpm/min) and then centrifuged at 5594 g for 15 min (Thermo Multifuge×3R). Transferred 50 μL of the supernatant from each well into a 96-well sample plate containing 50 μL of ultra pure water (Millipore, ZMQS50F01) for LC/MS analysis.

[2] = biological target: T1, USP7, Active human recombinant protein (Homo sapiens, UniProt Q93009); assay: USP7 assay (Ubiquitin-Rhodamine 110 enzymatic assay); type: biochemical; details: read-out: IC50
T1 construct: purchased CP Lot; 20200225001
Method: Enzymatic Assays with Exemplary USP7 Irreversible Inhibitors
as §1
USP7, Active human recombinant protein (CP, Lot. 20200225001), Ubiquitin-Rhodamine 110 (Rh110) (BostonBiochem, Cat. No. U-555), DMSO (Sigma, Cat. N34869), DTT (Sangon Biotech, Cat. No. A620058-0005), […] Tris pH 8.0 (Sigma, Cat. No. T2694-1L), Tween-20 (Sigma, Cat. No. P2287-100ML), EDTA (Invitrogen, Cat. No. 15575020, BSA (Sigma, Cat. No. B2064-100G), 384-well assay plate (Corning, Cat. No. 3573), Echo Qualified 384-Well Polypropylene Microplate 2.0, Clear, Flat Bottom (LABCYTE, Cat. No. 001-14555).
Dilute the compounds to 400× of the final desired highest inhibitor concentration in reaction by 100% DMSO. For all compounds, transfer the compounds to one well in a 384-well Echo plate and serially dilute the compound by 3-fold dilution of 100% DMSO in the next well and so forth for a total of 10 concentrations by Precision. Add 30 μL of 100% DMSO to two empty wells for no compound control and no enzyme control in the same 384-well Echo plate. Make the plate as a source plate.
For USP7 assay, transfer 50 nL of each well from the source plate to a 384-well assay plate (OptiPlate TM-384 F black assay plates) by Echo 550 Liquid Handler.
Added appropriate amount of USP7 in 1× assay Buffer to prepare 2× enzyme solution (USP7 final concentration: 0.05 nM). Added appropriate amount of Ubiquitin-Rhodamine 110 in 1× assay Buffer to prepare 2× substrate solution (Ubiquitin-Rhodamine 110 final concentration: 190 nM). Added 10 μL of 2× enzyme solution to each reaction well of the 384-well assay plate, except for control wells without enzyme (add 10 μL of 1× Assay Buffer instead as for low control). […] Transferred 2× substrate solution to the assay plate. Added 10 μL of 2× substrate solution to each well of the 384-well assay plate to start reaction. Centrifuged at 1000 rpm for 1 min. Read the plate kinetically on SpectraMax Paradigm for 20 min with excitation at 485 nm and emission at 535 nm. Copied raw data (slope) from Reader to obtain inhibition values in Excel using equation (1): […]
Max signal was obtained from the action of Enzyme and Substrate. Min signal was obtained from the Substrate only. To fit the data in XLFit excel add-in version 5.4.0.8 to obtain IC50 values used equation (2): […]
Y is % inhibition and X is compound concentration.

T1 sequence (Q93009 whole entry): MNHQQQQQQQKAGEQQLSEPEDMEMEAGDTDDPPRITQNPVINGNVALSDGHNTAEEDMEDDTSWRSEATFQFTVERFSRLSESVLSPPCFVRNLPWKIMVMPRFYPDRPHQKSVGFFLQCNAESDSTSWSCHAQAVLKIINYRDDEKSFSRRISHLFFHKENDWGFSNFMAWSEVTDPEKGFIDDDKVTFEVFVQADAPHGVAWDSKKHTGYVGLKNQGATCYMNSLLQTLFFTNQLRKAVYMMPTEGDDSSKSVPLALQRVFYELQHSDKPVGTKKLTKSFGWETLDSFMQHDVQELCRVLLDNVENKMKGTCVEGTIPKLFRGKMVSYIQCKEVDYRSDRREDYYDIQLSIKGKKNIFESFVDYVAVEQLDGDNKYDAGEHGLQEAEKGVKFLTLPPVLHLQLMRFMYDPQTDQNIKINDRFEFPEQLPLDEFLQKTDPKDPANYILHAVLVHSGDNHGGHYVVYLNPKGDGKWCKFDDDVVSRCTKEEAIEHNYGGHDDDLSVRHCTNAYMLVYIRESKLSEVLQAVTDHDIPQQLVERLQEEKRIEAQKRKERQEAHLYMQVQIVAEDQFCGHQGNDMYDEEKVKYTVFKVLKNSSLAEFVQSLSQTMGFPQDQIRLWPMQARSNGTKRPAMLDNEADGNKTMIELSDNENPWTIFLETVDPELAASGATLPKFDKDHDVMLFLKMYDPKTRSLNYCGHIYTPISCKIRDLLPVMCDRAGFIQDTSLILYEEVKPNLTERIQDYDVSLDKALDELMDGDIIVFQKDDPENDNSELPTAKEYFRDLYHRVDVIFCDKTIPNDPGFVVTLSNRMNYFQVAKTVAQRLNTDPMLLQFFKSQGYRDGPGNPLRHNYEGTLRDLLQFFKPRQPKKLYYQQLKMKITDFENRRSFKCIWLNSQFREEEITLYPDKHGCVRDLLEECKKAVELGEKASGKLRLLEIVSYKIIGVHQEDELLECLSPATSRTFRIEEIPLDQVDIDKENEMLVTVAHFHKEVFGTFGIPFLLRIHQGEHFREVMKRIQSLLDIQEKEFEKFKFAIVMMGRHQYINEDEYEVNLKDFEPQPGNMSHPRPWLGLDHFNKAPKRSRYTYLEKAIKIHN

half-life at 1 µM [1] [min]	IC50 [2] [nM]	SMILES
7.27	20 to 100	CC(c1ccccc1)C(CCCNC(=O)c1ccc2c(Cl)cc(C3CC3)nc2c1)C(=O)N1CCC(O)(Cn2cnc3cc(OCCCN(C)C)ccc3c2=O)CC1 (stereo not shown)
22.7	100 to 1000	CN1CCN(CCC(=O)Nc2ccc3c(=O)n(CC4(O)CCN(C(=O)C(CCCNC(=O)c5ccc6c(Cl)cc(-c7ccc(F)cc7)nc6c5)Cc5ccccc5)CC4)cnc3c2)CC1 (stereo not shown)
2.31	> 1000	O=C(CN1CCN(C(=O)c2ccc3c(Cl)c4c(nc3c2)CCCC4)CC1)N1CCC(O)(Cn2cnc3cc(Cl)ccc3c2=O)CC1
1.67	< 20	CN(C)CCCOc1ccc2c(=O)n(CC3(O)CCN(C(=O)[C@H](CCCNC(=O)c4ccc5c(Cl)c(C#N)cnc5c4)Cc4ccccc4)CC3)cnc2c1
31.9	< 20	CN(C)CCCOc1ccc2c(=O)n(CC3(O)CCN(C(=O)[C@H](CCCNC(=O)c4ccc5c(Cl)c(C6CC6)cnc5c4)Cc4ccccc4)CC3)cnc2c1
44	100 to 1000	CN(C)CCCOc1ccc2c(=O)n(CC3(O)CCN(C(=O)[C@H](CCCNC(=O)c4cnc5c(Cl)ccnc5c4)Cc4ccccc4)CC3)cnc2c1
57.6	< 20	CN(C)CCCOc1ccc2c(=O)n(CC3(O)CCN(C(=O)C(CCCNC(=O)c4ccc5c(Cl)c(CO)cnc5c4)Cc4ccccc4)CC3)cnc2c1 (stereo not shown)
30.2	< 20	CN(C)CCCOc1ccc2c(=O)n(CC3(O)CCN(C(=O)[C@@H](CCCNC(=O)c4ccc5c(Cl)c(C(N)=O)cnc5c4)Cc4ccccc4)CC3)cnc2c1
33.8	100 to 1000	CN(C)CCCOc1ccc2c(=O)n(CC3(O)CCN(C(=O)[C@H](CCCNC(=O)c4ccc5c(Cl)c(C(=O)N(C)C)cnc5c4)Cc4ccccc4)CC3)cnc2c1
62.4	< 20	CN(C)CCCOc1ccc2c(=O)n(CC3(O)CCN(C(=O)[C@@H](CCCNC(=O)c4ccc5c(Cl)c(C(=O)NC6CC6)cnc5c4)Cc4ccccc4)CC3)cnc2c1
10.2	100 to 1000	CN(C)CCCOc1ccc2c(=O)n(CC3(O)CCN(C(=O)[C@H](CCCNC(=O)c4ccc5c(Cl)c6c(nc5c4)CCNC6=O)Cc4ccccc4)CC3)cnc2c1
14.4	20 to 100	CN(C)CCCOc1ccc2c(=O)n(CC3(O)CCN(C(=O)C(CCCNC(=O)c4ccc5c(Cl)c6c(nc5c4)CCN(C)C6=O)Cc4ccccc4)CC3)cnc2c1 (stereo not shown)
11.3	< 20	CN(C)CCCOc1ccc2c(=O)n(CC3(O)CCN(C(=O)C(CCCNC(=O)c4ccc5c(Cl)c6c(nc5c4)CN(C)C6=O)Cc4ccccc4)CC3)cnc2c1 (stereo not shown)
16.3	> 1000	CN(C)CCCOc1ccc2c(=O)n(CC3(O)CCN(C(=O)C(CCCNC(=O)c4ccc5c(Cl)c6c(nc5c4)C(C)(C)NC6=O)Cc4ccccc4)CC3)cnc2c1 (stereo not shown)
28.2	< 20	CN(C)CCCOc1ccc2c(=O)n(CC3(O)CCN(C(=O)C(CCNC(=O)c4ccc5c(Cl)c(C(N)=O)cnc5c4)Cc4ccccc4)CC3)cnc2c1 (stereo not shown)
65.5	< 20	CN(C)CCCOc1ccc2c(=O)n(CC3(O)CCN(C(=O)C(Cc4ccccc4)NCCNC(=O)c4ccc5c(Cl)c(C(N)=O)cnc5c4)CC3)cnc2c1 (stereo not shown)

half-life at 1 µM [1] [min]	IC50 [2] [nM]	SMILES
36.4	< 20	CN(C)CCCOc1ccc2c(=O)n(CC3(O)CCN(C(=O)C(Cc4ccccc4)N(C)CCNC(=O)c4ccc5c(Cl)c(C(N)=O)cnc5c4)CC3)cnc2c1 (stereo not shown)
22.1	< 20	CN(C)CCCOc1cc2ncn(CC3(O)CCN(C(=O)[C@@H](CCCNC(=O)c4ccc5c(Cl)cc(C6CC6)nc5c4)Cc4ccccc4)CC3)c(=O)c2cc1F
18.6	< 20	CN(C)CCCNc1cc2ncn(CC3(O)CCN(C(=O)[C@@H](CCCNC(=O)c4ccc5c(Cl)cc(C6CC6)nc5c4)Cc4ccccc4)CC3)c(=O)c2cc1F
106	20 to 100	CN(C)CCCOc1ccc2c(=O)n(CC3(O)CCN(C(=O)C(Cn4ccc(F)n4)N(C)CCNC(=O)c4ccc5c(Cl)c(C(N)=O)cnc5c4)CC3)cnc2c1 (stereo not shown)
152	< 20	CN(C)CCCOc1ccc2c(=O)n(CC3(O)CCN(C(=O)C(CCCNC(=O)c4ccc5c(Cl)c(C(=O)NC6CC6)cnc5c4)Cn4ccc(F)n4)CC3)cnc2c1 (stereo not shown)
46.5	20 to 100	CN(C)CCCOc1ccc2c(=O)n(CC3(O)CCN(C(=O)C(Cc4ccccc4)N(C)CCNC(=O)c4ccc5c(Cl)c(C(=O)NC6CC6)cnc5c4)CC3)cnc2c1 (stereo not shown)
6.51	20 to 100	NC(=O)c1cnc2cc(C(=O)NCCCC(Cn3ccc(F)n3)C(=O)N3CCC(O)(Cn4cnc5ccccc5c4=O)CC3)ccc2c1Cl (stereo not shown)
4.61	20 to 100	O=C(NCCCC(Cn1ccc(F)n1)C(=O)N1CCC(O)(Cn2cnc3ccccc3c2=O)CC1)c1ccc2c(Cl)c(C(=O)NC3CC3)cnc2c1 (stereo not shown)
1	20 to 100	O=C(NCCCC(Cc1ccccc1)C(=O)N1CCC(O)(Cn2cnc3c(cnn3-c3ccc(F)cc3)c2=O)CC1)c1ccc2c(Cl)ccnc2c1 (stereo not shown) [Compound 6, N-(4-benzyl-5-(4-((1-(4-fluorophenyl)-4-oxo-1,4-dihydro-5H-pyrazolo[3,4-d]pyrimidin-5-yl)methyl)-4-hydroxypiperidin-1-yl)-5-oxopentyl)-4-chloroquinoline-7-carboxamide]
4.3	< 20	Nc1ccc(-n2ncc3c(=O)n(CC4(O)CCN(C(=O)C(CCCNC(=O)c5ccc6c(Cl)ccnc6c5)Cc5ccccc5)CC4)cnc32)cc1 (stereo not shown) [Compound 7, N-(5-(4-((1-(4-aminophenyl)-4-oxo-1,4-dihydro-5H-pyrazolo[3,4-d]pyrimidin-5-yl)methyl)-4-hydroxypiperidin-1-yl)-4-benzyl-5-oxopentyl)-4-chloroquinoline-7-carboxamide]
	< 20	CN(C)CCCOc1ccc2c(=O)n(CC3(O)CCN(C(=O)[C@H](CCCNC(=O)c4ccc5c(Cl)c(C(F)F)cnc5c4)Cc4ccccc4)CC3)cnc2c1 [Compound 130]
	100 to 1000	CN(C)CCCOc1ccc2c(=O)n(CC3(O)CCN(C(=O)[C@H](CCCNC(=O)c4ccc5c(Cl)c(F)cnc5c4)Cc4ccccc4)CC3)cnc2c1 [Compound 131]
	20 to 100	O=C(NCCC[C@H](Cc1ccccc1)C(=O)N1CCC(O)(Cn2cnc3cc(-c4ncc(CN5CCNCC5)o4)ccc3c2=O)CC1)c1ccc2c(Cl)cc(C3CC3)nc2c1 [Compound 135]
	< 20	CN(C)CCCNc1ccc2c(=O)n(CC3(O)CCN(C(=O)[C@H](CCCNC(=O)c4ccc5c(Cl)cc(C6CC6)nc5c4)Cc4ccccc4)CC3)cnc2c1 [Compound 136]
	20 to 100	COc1cc2c(=O)n(CC3(O)CCN(C(=O)[C@H](CCCNC(=O)c4ccc5c(Cl)cc(C6CC6)nc5c4)Cc4ccccc4)CC3)cnc2cc1OCCCN(C)C [Compound 138]
	20 to 100	O=C(NCCN1CC[C@@H](C(=O)N2CCC(O)(Cn3cnc4cc(-c5nc(CN6CCNCC6)co5)ccc4c3=O)CC2)[C@H](c2ccccc2)C1)c1ccc2c(Cl)ccnc2c1 [Compound 144]
